Experimental data: patent US12686690B2, “Macrocyclic urea orexin receptor agonists” (Merck Sharp & Dohme LLC, priority 2020, dated 2026)

Biological target: T1, hOX2R (Homo sapiens, UniProt O43614)
T1 construct: expressed in transfected cells; host or cells: CHO cells (G418 selection)
T1 sequence (O43614 1-444): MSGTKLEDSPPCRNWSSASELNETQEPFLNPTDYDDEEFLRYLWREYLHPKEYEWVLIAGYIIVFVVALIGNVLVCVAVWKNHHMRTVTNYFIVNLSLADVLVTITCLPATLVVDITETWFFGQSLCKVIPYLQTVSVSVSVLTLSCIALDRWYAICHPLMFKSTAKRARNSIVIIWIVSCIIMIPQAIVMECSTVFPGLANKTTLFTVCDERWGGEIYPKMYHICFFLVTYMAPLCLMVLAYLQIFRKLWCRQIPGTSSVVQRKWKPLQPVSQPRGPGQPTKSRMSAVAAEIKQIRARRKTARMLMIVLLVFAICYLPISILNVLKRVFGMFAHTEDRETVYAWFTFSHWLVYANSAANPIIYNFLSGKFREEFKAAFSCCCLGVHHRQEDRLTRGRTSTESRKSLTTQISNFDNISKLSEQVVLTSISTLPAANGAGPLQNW
Assay: hOX2R IPone assay (orexin receptor agonism)
Format: cell-based
Settings: IPone readout; for hOX2R_Ipone max %act: maximal activation; for EC50: orexin receptor agonist, read-out: hOX2R_IPone EC50

Structure (SMILES)	hOX2R_Ipone max %act	EC50
CCN1C(=O)NCCN(C)CCC(C)Oc2nc(cn3ccnc23)-c2cccc(c2)[C@H]1C (mixture of isomers) [Example 16, (12R)-13-ethyl-12,18,21-trimethyl-12,13, 16,17,18,19,20,21-octahydro-6,23-(azeno)-11,7-(metheno) imidazo[2,1-c][1,4,13,15,18]oxa-tetraazacyclo-henicosin-14(15H)-one]	77.7%	3880 nM
CCN1C(=O)NC(CCC(F)(F)F)CCC(F)(F)CCOc2nc(cn3ccnc23)-c2cc(ncc2OC)[C@H]1C (single isomer, unassigned) [Example 121B]	100.7%	0.5 nM
CCN1C(=O)N[C@@H](CCC(F)(F)F)CCCCCOc2nc(cn3ccnc23)-c2ccnc(c2)[C@H]1C [Example 110, (3R,7R,E)-4-ethyl-3-methyl-7-(3,3,3-trifluoropropyl)-13-oxa-4,6-diaza-1(6,8)-imidazo[1,2-a]pyrazina-2(4,2)-pyridinacyclotridecaphan-5-one]	100.2%	1.3 nM
CCN1C(=O)NC(CC2(C(F)F)CC2)CCCCCOc2nc(cn3ccnc23)-c2cc(ncc2OC)[C@H]1C (single isomer, unassigned) [Example 70A]	99.1%	16.5 nM
CCN1C(=O)N[C@@H](CCC(C)(F)F)CCCCCOc2nc(c(C)n3ccnc23)-c2cc(ccn2)[C@H]1C [Example 160, (3R,7R,E)-7-(3,3-difluorobutyl)-4-ethyl-15,3-dimethyl-13-oxa-4,6-diaza-1(6,8)-imidazo[1,2-a]pyrazina-2(2,4)-pyridinacyclotridecaphan-5-one]	101.4%	0.77 nM
CCN1C(=O)N[C@@H](CC(F)(F)F)CCCCCOc2nc(cn3ccnc23)-c2ccnc(c2)[C@H]1C [Example 103, (12R,16R)-13-ethyl-12-methyl-16-(2,2,2-trifluoroethyl)-12,13,16,17,18,19,20, 21-octahydro-6,23-(azeno)-11,7-(metheno)imidazo[2,1-c][1,4,10,13,15] oxatetraazacycloheni-cosin-14(15H)-one]	100.8%	13.1 nM
CCN1C(=O)NCCCOCCOc2nc(cn3ccnc23)-c2cc(ncc2OC)[C@H]1C [Example 7, (12R)-13-ethyl-8-methoxy-12-methyl-12,13,15,16,17,18,20,21-octahydro-14H-6,23-(azeno)-11,7-(metheno)imidazo[2,1-f][1,4,7,13,16,18]dioxatetra-azacyclohenicosin-14-one]	100.6%	4.6 nM
CCN1C(=O)NCCCCOc2nc(cn3ccnc23)-c2cc(ncc2OC)[C@H]1C [Example 178, (R,E)-4-ethyl-25-methoxy-3-methyl-11-oxa-4,6-diaza-1(6,8)-imidazo[1,2-a]pyrazina-2(4,2)-pyridinacycloun-decaphan-5-one]	88%	325 nM
CCN1C(=O)NCCCC(C)(C)COc2nc(cn3ccnc23)-c2cccc(c2)[C@H]1C [Example 13, (12R)-13-ethyl-12,19,19-tri-methyl-12,13,15, 16,17,18,19,20-octahydro-14H-6,22-(azeno)-11,7-(metheno) imidazo[2,1-c][1,4,13,15]oxa-triazacycloicosin-14-one]	98.2%	634 nM
CCN1C(=O)N[C@@H](CCC(F)(F)F)CCCCCOc2cc(cc3ccnn23)-c2cc(nnc2OC)[C@H]1C [Example 140, (3R,7R,E)-4-ethyl-26-methoxy-3-methyl-7-(3,3,3-trifluoropropyl)-13-oxa-4,6-diaza-1(5,7)-pyrazolo[1,5-a]pyridina-2(5,3)-pyridazinacyclotridecaphan-5-one]	101.9%	1.4 nM

The remaining compounds from weak to strong by EC50, led by results:

hOX2R_Ipone max %act	EC50	Structure (SMILES)
96.6%	528 nM	CCN1C(=O)N[C@@H](CCC(F)(F)F)CCCCCOc2nc(cn3cc(C)nc23)-c2cc(nc3ccoc23)C1C (single isomer, unassigned) [Example 75A]
99.1%	156 nM	CCN1C(=O)NC(CCC(F)(F)F)C(C)CCCOc2nc(cn3ccnc23)-c2cccc(c2)[C@H]1C (single isomer, unassigned) [Example 42B]
98.1%	105 nM	CCN1C(=O)N[C@@H](CCC(F)(F)F)CCCCCOc2nc(cn3ccnc23)-c2cc(ccn2)[C@@H]1C [Example 113A, (12S,16R)-13-ethyl-12-methyl-16-(3,3,3-trifluoropropyl)-12,13,16,17,18,19,20,21-octahydro-6,23-(azeno)-11,7-(metheno)imidazo[2,1-c][1,4,8,13,15]oxatetraazacyclohenicosin-14(15H)-one]
74.7%	42 nM	CCN1C(=O)NCCCCCOc2nc(cn3ccnc23)-c2cccc(c2)[C@H]1C [Example 49, (12R)-13-ethyl-12-methyl-12,13,15,16,17,18,19,20-octahydro-14H-6,22-(azeno)-11,7-(metheno)imidazo[2,1-c][1,4,13,15]oxatriaza-cycloicosin-14-one]
100.1%	38.4 nM	CCN1C(=O)NC(C2CCOCC2)CCCCCOc2nc(cn3ccnc23)-c2cc(ncc2OC)[C@H]1C (single isomer, unassigned) [Example 68A]
99.8%	9.6 nM	CCN1C(=O)NC(CC2CCOC2)CCCCCOc2nc(cn3ccnc23)-c2cc(ncc2OC)[C@H]1C (single isomer, unassigned) [Example 67A]
101.5%	8.9 nM	CCN1C(=O)N[C@@H](CCC(F)(F)F)CCCCOc2nc(cn3cc(C)nc23)-c2cc(ncc2OC)C1C(F)(F)F (single isomer, unassigned) [Example 36B]
99.01%	8.35 nM	CCN1C(=O)N[C@@H](C)C(F)(F)CCCCOc2nc(cn3ccnc23)-c2cc(ncc2OC)[C@H]1C [Example 141, (3R,7S,E)-4-ethyl-8,8-difluoro-25-methoxy-3,7-dimethyl-13-oxa-4,6-diaza-1(6,8)-imidazo[1,2-a]pyrazina-2(4,2)-pyridinacyclotridecaphan-5-one]
100.5%	8 nM	CCN1C(=O)N[C@@H](CCC(F)(F)F)C/C=C\COc2nc(cn3ccnc23)-c2cccc(c2)[C@H]1C [Example 31, (1^7E,3R,7S,9Z)-4-ethyl-3-methyl-7-(3,3,3-trifluoropropyl)-12-oxa-4,6-diaza-1(6,8)-imidazo[1,2-a]pyrazina-2(1,3)-benzenacyclododecaphan-9-en-5-one]
100.9%	2.2 nM	CCN1C(=O)NC(CCCOC)CCCCCOc2nc(cn3ccnc23)-c2cc(ncc2OC)[C@H]1C (single isomer, unassigned) [Example 60B]
101.6%	1.2 nM	CCN1C(=O)NC(C2CC2)CCCCCOc2nc(cn3ccnc23)-c2cc(ncc2OC)[C@H]1C (single isomer, unassigned) [Example 57B]
100.1%	0.98 nM	CCN1C(=O)NC(c2nnnn2C)CCCCCOc2nc(cn3ccnc23)-c2cc(ncc2OC)[C@H]1C (stereo partly drawn) [Example 217, (3R,E)-4-ethyl-2^5-methoxy-3-methyl-7-(1-methyl-1H-tetrazol-5-yl)-13-oxa-4,6-diaza-1(6,8)-imidazo[1,2-a]pyrazina-2(4,2)-pyridinacyclotridecaphan-5-one]
